The record followed here is patent US7728146B2, “Enzyme inhibitors” (Probiodrug AG, priority 2006, dated 2010).

For one data set, the target named is DP9 (Homo sapiens, UniProt Q86TI2). Briefly: DP9 assay. The class given is biochemical. On the procedure: (§1) Determination of IC50 values for DPII and DP9 are done similarly as described for DP IV.
For DP9 Gly Pro-AMC is used as substrate in a final concentration of 0.25 mM.

Data set [1] deals with neuroblastoma cell line SY5Y. The data set can be described thus: LD50 determination on SY5Y (LDH). The data set is classed as cell-based. To be noted: 8 serial dilutions, highest concentration 1 mM. As to the method:
After 24 h of cultivation in a 96 well plate (50 000 cells/well) compounds (dissolved in DMSO) are added and cytotoxicity and vitality of the cells are analysed after another 24 h of cultivation using the CytoTox-One Homogenoeous membrane toxicity assay (Promega).
For cytotoxicity the LDH activity in the cell culture media after 24 h of incubation are analysed. The untreated control is set to 0% cytotoxicity. For the 100% value LDH activity of lysed untreated cells are analysed.
For viability cell culture media are removed from the cells and all cells are lysed using the lysis buffer. LDH activity is determined and untreated control is set to 100% viability.
For determination of LD50 the liver carcinoma cell line HEP-G2 and the neuroblastoma cell line SY5Y may be used. The effect of 8 serial dilutions of the compounds (highest concentration 1 mM) is investigated as described above.

The target in the next data set is DP IV (Homo sapiens, UniProt P27487). The data set can be described thus: Ki and inhibition type, DP IV. The data set is classed as biochemical. To be noted: compounds obtained by preparative synthesis. The method, boiled down:
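Ki by non-linear regression of 7 inhibitor dilutions (range from IC50) against 4 substrate dilutions, in triplicate, using purified human recombinant enzyme under IC50 assay conditions. Inhibition type assigned from the best-fitting equation (competitive, partial competitive, non-competitive); […].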

The next data set deals with Caco-2 monolayer. The data set can be described thus: Caco-2 transport assay. The class given is in vitro ADME, human. The note with it: assessment of permeability and transport type. As to the method:
(§2) The concentration of compounds in the Caco experiments may be determined from their potency to inhibit recombinant human DP IV.
(§3) Reaction is started by addition of 20 μl rhDP IV and release of pNA was monitored at 405 nm. Samples are analyzed in several dilutions (undiluted, 1:10, 1:[…]). Dilutions are done in the Caco assay buffer. Activity measured with Caco-assay buffer alone is set to 100% and inhibitor concentration is calculated from the dilutions resulting in 20 to 80% inhibition according to the equation for competitive inhibition.
(§4) [formula] • I=inhibitor concentration • v0=velocity of the reaction without inhibitor (Caco assay buffer alone) • vi=velocity of the reaction with inhibitor sample • Ki=Ki-value of the compound • DF=dilution factor of the sample Transport Assay
(§5) The human colon adenocarcinome cell line Caco-2 are grown in 6- or 24-transwell microplates (Costar) for 21 days with MEM-alpha containing 10% FBS and 0.5% Gentamycin (Invitrogen). After 21 days of cultivation integrity of the cell layer are assessed by measurement of the transepitelial electrical resistance.
(§6) Transport measurements are carried out in triplicates at a pH of 7.5. For each compound and direction (apical to basal (a-b), basal to apical (b-a)) two separate experiments are done. Samples are collected from the donor and acceptor compartments at the beginning of the experiment and after 60 min (for 6-well plates, Donor at 0 and 120 min, Acceptor at 15, 30, 60 and 120 min).
(§7) Samples are analyzed in several dilutions for their ability to inhibit human recombinant DP IV and compound concentrations may be calculated using the prior determined Ki-value (see above).
(§8) The permeability coefficient Papp is calculated according to the following equation:
(§9) [formula] • VA=Volume of the acceptor compartment • A=Area of the transwell membrane • t=sampling time • cAt=concentration in the acceptor compartment at sampling time • CDO=concentration in the donor compartment at t=0
(§10) Papp-values>1e-5 cm/s are assessed as good permeable, value<1e-6 cm/s as not permeable. Papp-values in between as medium permeable. Compounds where no significant difference were found between a-b and b-a transport are assessed to be passive transported.
(In general: Caco-2 monolayers are a common model of the intestinal barrier.)

A short description of another data set: Caco-2 transport assay. To be noted: human, Caco-2, pH 7.5. The class given is in vitro ADME, human. On the procedure: as §2, §3, §4, §5, §6, §7, §8, §9, §10
Data set [2] deals with dipeptidyl peptidase (DP IV) (UniProt P27487). The data set can be described thus: Determination of IC50 against DP IV (hydrolysis of Gly-Pro-pNA). The class given is biochemical, porcine kidney or recombinant human. The note with it: compounds obtained by preparative synthesis. In a few lines: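 Porcine kidney or recombinant human DP IV (about 40–50 μU/ml) in HEPES pH 7.6 (I=0.32) with Gly-Pro-pNA at room temperature, 5% DMSO, 11 twofold dilutions from 100 μM final. pNA release at 405 nm over ~18 min; slopes give residual activity versus solvent, IC50 by 4-parameter fit.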

Another data set addresses DPII (Homo sapiens, UniProt Q9UHL4). The data set can be described thus: DPII assay. The class given is biochemical. As to the method: as §1
For DPII instead of the HEPES buffer a 0.2 M sodium acetate buffer pH 5.5 is used. As substrate Gly-Pro-AMC is used in a final concentration of 1 mM.

The nature of data set [3]: solubility (dosing solution in saline). The class given is physicochemical. To be noted: compounds were dissolved in saline for dosing. On the procedure: The animals were treated by a single oral dose of 3 mg/kg (5 mL/kg b.w.; treatment A) followed by a wash-out period of at least 3 days before intraarterial administration of 3 mg/kg (2 mL/kg b.w.; treatment B). The compounds were dissolved in saline to a final concentration adequate for an application of 3 mg/kg b.w.

Data set [4] deals with liver cell carcinoma cell line Hep-G2. The data set can be described thus: Cytotoxicity screening and LD50 determination on Hep-G2 (LDH, CytoTox-One). The class given is cell-based. The note with it: 8 serial dilutions, highest concentration 1 mM. In a few lines: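 Hep-G2 cells (50 000/well) precultured 24 h, then compound in DMSO (final 1%) added for 24 h. Screen at 100 μM, 2 μM, 40 nM in triplicate. LDH in medium gave cytotoxicity (untreated 0%, lysed 100%); LDH of lysed cells gave viability. LD50 from 8 serial dilutions, top 1 mM.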

Sequence of DP9 (Q86TI2 whole entry, species assumed): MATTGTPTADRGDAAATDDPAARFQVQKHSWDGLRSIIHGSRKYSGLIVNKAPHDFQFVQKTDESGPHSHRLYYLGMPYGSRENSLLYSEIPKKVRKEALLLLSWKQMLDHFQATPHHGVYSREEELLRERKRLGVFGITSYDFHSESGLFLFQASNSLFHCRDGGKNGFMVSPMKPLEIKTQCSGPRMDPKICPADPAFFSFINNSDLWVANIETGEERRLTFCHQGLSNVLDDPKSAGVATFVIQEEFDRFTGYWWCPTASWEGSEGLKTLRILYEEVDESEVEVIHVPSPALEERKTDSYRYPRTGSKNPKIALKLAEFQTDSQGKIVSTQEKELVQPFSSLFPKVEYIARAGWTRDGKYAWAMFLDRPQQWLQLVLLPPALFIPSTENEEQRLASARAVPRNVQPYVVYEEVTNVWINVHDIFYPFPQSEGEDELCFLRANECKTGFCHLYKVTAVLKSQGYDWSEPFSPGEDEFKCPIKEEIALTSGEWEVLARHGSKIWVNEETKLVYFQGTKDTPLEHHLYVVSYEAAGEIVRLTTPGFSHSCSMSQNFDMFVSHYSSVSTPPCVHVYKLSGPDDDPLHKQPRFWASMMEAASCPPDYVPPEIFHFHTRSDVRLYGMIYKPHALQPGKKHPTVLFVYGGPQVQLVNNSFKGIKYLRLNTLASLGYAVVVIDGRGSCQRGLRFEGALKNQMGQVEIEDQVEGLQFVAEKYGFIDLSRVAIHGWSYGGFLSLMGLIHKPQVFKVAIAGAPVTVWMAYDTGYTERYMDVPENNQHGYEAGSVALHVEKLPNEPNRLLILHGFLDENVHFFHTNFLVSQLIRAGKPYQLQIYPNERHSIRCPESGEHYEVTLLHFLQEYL
Sequence of DP IV (P27487 whole entry): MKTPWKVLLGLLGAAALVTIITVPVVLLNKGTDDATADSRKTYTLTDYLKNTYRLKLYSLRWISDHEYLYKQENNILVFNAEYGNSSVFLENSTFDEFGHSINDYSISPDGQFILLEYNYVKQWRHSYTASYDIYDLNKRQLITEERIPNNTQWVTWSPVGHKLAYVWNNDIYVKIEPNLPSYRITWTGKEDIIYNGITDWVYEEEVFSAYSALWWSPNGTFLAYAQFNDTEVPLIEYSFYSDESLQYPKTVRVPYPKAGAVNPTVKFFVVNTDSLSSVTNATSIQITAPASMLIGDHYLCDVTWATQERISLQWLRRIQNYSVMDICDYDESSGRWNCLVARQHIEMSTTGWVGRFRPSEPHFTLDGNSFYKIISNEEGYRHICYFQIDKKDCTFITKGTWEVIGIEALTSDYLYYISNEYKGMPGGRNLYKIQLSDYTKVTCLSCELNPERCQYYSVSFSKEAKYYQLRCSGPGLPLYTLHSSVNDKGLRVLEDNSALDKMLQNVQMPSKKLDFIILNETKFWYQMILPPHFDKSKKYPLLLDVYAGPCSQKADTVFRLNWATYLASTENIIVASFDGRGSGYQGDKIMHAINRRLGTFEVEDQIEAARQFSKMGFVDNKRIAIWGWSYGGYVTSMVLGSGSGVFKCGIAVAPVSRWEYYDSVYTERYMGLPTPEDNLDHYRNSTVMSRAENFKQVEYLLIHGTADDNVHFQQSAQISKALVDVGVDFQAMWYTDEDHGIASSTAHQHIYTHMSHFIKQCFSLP

Usually IC50 stands for the concentration at which inhibition is half-maximal. The low end stands for greater potency in that assay, the high end for weaker potency in that assay. The term Ki denotes a measure of affinity in units of concentration, obtained from inhibition or displacement. High values mean lower affinity, low ones higher affinity. In general, Papp A→B refers to how fast a substance crosses the layer from the apical side. Low values mean slow passage, high ones fast passage. For orientation: Papp B→A means the apparent permeability from the basolateral to the apical side of a cell layer. Consider `CCOc1ccccc1Cn1cnc(-c2ccc(Cl)cc2Cl)c1CN` [Example 128b, (1-(2-ethoxybenzyl)-4-(2,4-dichlorophenyl)-1H-imidazol-5-yl)methanamine], for which the IC50 is 34.3 µM against DP9 (Gly Pro-AMC 0.25 mM); 0.054 µM in data set [2]; 3.42 µM at DPII (sodium acetate buffer pH 5.5, Gly-Pro-AMC 1 mM). Also, the “Selectivity DP9(IC50)/DPIV(Ki)” value on DP9 (ratio IC50 DP9 / Ki DP IV) is given as 5,419. Moreover, the “LD50 Viability SY5Y” value in [1] is 0.07 mM. For the same molecule, in [1], the “LD50 cytotox SY5Y” value worked out at 0.15 mM. Further, the Ki at DP IV was determined as 0.00633 µM; at DPII, 1.57 µM. Further, in the data set on Caco-2 monolayer, the Transport entry was “good, active in”. In “Caco-2 transport assay” (apical to basal), this molecule showed a Papp A→B of 45.1 ×10⁻⁶ cm/s. In addition, the Papp B→A in “Caco-2 transport assay” (basal to apical) was found to be 15 ×10⁻⁶ cm/s. Moreover, on DPII (ratio IC50 DPII / Ki DP IV), the “Selectivity DPII(IC50)/DPIV(Ki)” value is given as 540. Moreover, in data set [3], the solubility entry is listed as “low solubility”. In data set [4], the “LD50 Viability HEP-G2” value was 0.15 mM. The “LD50 cytotox HEP-G2” value in [4] is on record as 0.14 mM.
